Entries after “also recorded” stand apart in the source; their conditions may differ.
Legend:
[1] = system: embryonic sensory neurons; test: Rescue of embryonic sensory neurons from apoptosis by NGF+NAC; assay type: cell-based; conditions: NAC + 1 or 10 ng/ml NGF on days 1 and 2, labeled on day 3; depending on NAC and NGF concentrations
Description: Cultures of embryonic sensory neurons were generated according to methods described in Groves et al., Dev. Biol., 159:87-104, (1993), the contents of which are incorporated herein by reference. The cells were exposed to sub-optimal doses of NGF. As shown in FIG. 4 cultures exposed to NAC and either 1 or 10 ng/ml NGF on days 1 and 2 and labeled on day 3 contained 300-1000% more neurons than those exposed to NGF alone, depending upon the concentrations of NAC and NGF applied.
Neurons were defined by morphology and by labeling with the TUJI antibody against β-tubuli (Groves, A. K., et al., Dev. Biol., 159:87-104 (1993); Moody, S. Q., et al., J. Comp. Neurol., 279:567-580 (1989)) cultures were in DMEM-BS. There was no BrdU labeling of neurons, nor was there any correlation between the extent of BrdU labeling in non-neuronal populations and the number of neurons present (data not shown). Analysis of DNA synthesis by BrdU incorporation (Gatzner, H. G., et al., Science, 318:474-475 (1982) confirmed that this increase in neuronal number was not due to cell division, strongly implicating differential cell death as the reason for the difference.
Values shown are means+/−SD for quadruplicate coverslips from the one of four experiments, all of which yielded similar results.

embryonic kidney cells = test: EGF-induced proliferation of embryonic kidney cells; assay type: cell-based, rat; conditions: all EGF concentrations examined
Description: FIG. 7 was analyzed as for FIG. 1(B), but used embryonic kidney cells. The cells grown in the 96-well trays were derived by dissociation of kidney rudiments from 11 days embryonic rats. Cells were grown in DMEM-BDS+/−epidermal growth factor (at the concentrations indicated)+/−NAC.

spinal ganglion neurons = test: Neurite outgrowth of spinal ganglion neurons on laminin or L1; assay type: cell-based, rat; conditions: 24 hours, NGF added
From the text: To determine whether compounds that are able to raise intracellular thiol levels are able to enhance the efficacy of yet a different group of cellular signaling systems, we examined the effects of NAC supplementation on the promotion of neurite outgrowth by laminin and by L1. We first determined suboptimal concentrations for the effect of these cellular adhesion molecules, which were attached to tissue culture plastic surfaces in two different manners. Laminin was directly attached to the tissue culture surface with a cross-linking chemistry that preserves the structure of extracellular matrix molecules. L1 was attached as a dimer chimera, cross-linked by an Fc region from a human immunoglobulin molecule, by first adsorbing to the plastic surface an antibody directed against the human immunoglobulin Fc domain, followed by absorption of the L1 dimer to this surface. To promote neuronal survival, nerve growth factor (NGF), the survival factor of the spinal ganglion neurons used in this experiment, was also added at different concentrations. […] After 24 hours cultures were stained with an antibody to beta-III-tubulin and neurite length per neuron was measured.

oligodendrocytes = test: Rescue of purified oligodendrocytes from apoptosis induced by switch to DMEM alone (trophic factor withdrawal); conditions: for enhancement of survival factor (IFN-γ) activity compared with NAC: co-exposure with survival factor
Description: After 3 days of growth in DMEM-BS, the resulting cultures of pure oligodendrocytes were switched to DMEM alone, a condition that induces apoptosis unless cells are exposed to appropriate growth factors.
Cells were then switched to DMEM alone, supplemented with 10, 50 or 500 u/ml of interferon-γ, and the number of surviving cells present after a further three days was determined by MTT staining.
After 3 days in DMEM-BS, the resulting cultures of pure oligodendrocyte were switched to DMEM alone to which was added progesterone+/−1 mM NAC (FIG. 9).
After 3 days in DMEM-BS, the resulting cultures of pure oligodendrocytes were switched to DMEM alone to which was added 10 μM Trolox+/−1 mM NAC (FIG. 10).
After 3 days in DMEM-BS, the resulting cultures of pure oligodendrocyte were switched to DMEM alone to which was added (a) progesterone (63 ug/ml)+NAC (1 mM)+trolox (100 uM)+Vitamin C (10 uM) (“combination”) or (b) CNTF (10 ng/ml)+IGF-1 (50 ng/ml)+NT-3 (5 ng/ml) (“combination”).
In all conditions, the 100% value corresponds to the cell survival seen in cultures of oligodendrocyte not subjected to trophic factor withdrawal.
After 3 days in DMEM-BS, the resulting cultures of pure oligodendrocytes were switched to DMEM alone to which was added progesterone.
Purified oligodendrocytes were generated and grown as in previous examples. 3 days after plating, cells were switched either directly to the indicated conditions (open bars) or were first switched to DMEM alone for 24 hr before the indicated factors were added in an attempt to rescue the cells (black bars). Cells were counted 3 days after switch to the indicated conditions.

0-2A progenitor cells = test: PDGF-induced division of purified 0-2A progenitor cells (BrdU incorporation, total cell number); assay type: cell-based, rat
Description: The effect of NAC on generation of 0-2A progenitors and oligodendrocytes was examined in cultures of purified 0-2A progenitors (prepared as in Example IA) exposed to platelet-derived growth factor (PDGF), the best-characterized mitogen for 0-2A progenitor cells.
NAC enhances the division-inducing effects of platelet-derived growth factor (PDGF). Purified 0-2A progenitor cells were plated on PLL-coated coverslips at a density of 3,000 cells per cover slip and exposed to PDGF (a known mitogen for these cells) at the indicated concentrations. In addition, cells were exposed to NAC at a variety of concentrations; the effects of 1 mM NAC are illustrated.
As shown previously, induction of DNA synthesis and increases in cell number by PDGF was dose-dependent.

## CC(=O)N[C@@H](CS)C(=O)O [NAC, N-acetylcysteine]
[1]
  more neurons than with NGF alone: 300-1000%
Embryonic kidney cells
  effect of NAC on EGF-induced proliferation (cell number): enhanced the proliferative effects of EGF
Spinal ganglion neurons; L1 2 micrograms/ml plating concentration
  neurite length on L1 with NAC versus without NAC: enhanced
Spinal ganglion neurons; laminin 2 micrograms/ml plating concentration
  neurite length on laminin with NAC versus without NAC: enhanced
oligodendrocytes; 1 mM NAC + 10 μM Trolox, DMEM alone, 3 days
  extent of survival, NAC in combination with Trolox: highly significant increases (**)
oligodendrocytes; 1 mM NAC + Vitamin C, DMEM alone, 3 days
  extent of survival, NAC in combination with Vitamin C: highly significant increases (**)
oligodendrocytes; 1 mM NAC + progesterone, DMEM alone, 3 days, no RTK/RawTK agonists
  extent of survival, NAC in combination with progesterone: highly significant increases (**)
oligodendrocytes; 1 mM NAC + various concentrations of CNTF, DMEM alone, 3 days
  extent of survival with CNTF in presence of NAC versus CNTF by itself: significant increases
oligodendrocytes; 1 mM NAC + various concentrations of IGF-1, DMEM alone, 3 days
  extent of survival with IGF-1 in presence of NAC versus IGF-1 by itself: significant increases
oligodendrocytes; 1 mM NAC alone, DMEM alone, 3 days
  cell survival with NAC alone: did not promote oligodendrocyte survival; also recorded: did not promote cell survival
oligodendrocytes; Example I-(L), counted 3 days after switch
  oligodendrocyte survival, cells switched directly to the indicated conditions: not effective at supporting oligodendrocyte survival
oligodendrocytes; NAC 1 mM alone
  Survival (as % of DMEM-BS control): 2 ± 1%
oligodendrocytes; NAC 1 mM together with IFN-γ
  extent of survival obtained with IFN-γ when NAC is applied together: dramatically enhanced the extent of survival obtained
0-2A progenitor cells; 1 mM NAC + PDGF
  ability of PDGF to induce DNA synthesis (BrdU incorporation) on addition of NAC: marked increase
  total number of cells generated by PDGF-induced cell division on addition of NAC: marked increase
0-2A progenitor cells; NAC alone, BrdU incorporation and total cell number
  induction of cell division by NAC alone: had no effect on the induction of cell division

## CC(=O)[C@H]1CC[C@H]2[C@@H]3CCC4=CC(=O)CC[C@]4(C)[C@H]3CC[C@]12C [Progesterone, progesterone]
oligodendrocytes; Progesterone 6.3 ng/ml alone
  Survival (as % of DMEM-BS control): 4 ± 1%
oligodendrocytes; Progesterone .63 ng/ml alone
  Survival (as % of DMEM-BS control): 0%

## Cc1c(C)c2c(c(C)c1O)CCC(C)(C(=O)O)O2 (centres unmarked) [Trolox]
oligodendrocytes; Trolox 100 uM alone
  Survival (as % of DMEM-BS control): 6 ± 5%
oligodendrocytes
  enhancement of survival factor (IFN-γ) activity compared with NAC: similar, but lesser effects

## O=C1O[C@H]([C@@H](O)CO)C(O)=C1O [Vitamin C]
oligodendrocytes; 10 uM Vit C alone, Example I(J), DMEM alone, 3 days
  Survival (as % of DMEM-BS control): 2 ± 3%
oligodendrocytes; VitC 10 uM alone, Example I(K)
  Survival (as % of DMEM-BS control): 1 ± 1%
oligodendrocytes
  enhancement of survival factor (IFN-γ) activity compared with NAC: similar, but lesser effects

## IGF-I: oligodendrocyte survival factor, growth factor
oligodendrocytes; IGF-I 0.1 ng/ml, DMEM alone, 3 days
  Survival (as % of DMEM-BS control): 1 ± 1%

## PDGF
0-2A progenitor cells; PDGF at the indicated concentrations
  induction of DNA synthesis and increases in cell number by PDGF: dose-dependent

B1: interferon-γ: interferon-gamma, survival factor for oligodendrocytes (protein, UniProt P01579 24-161, looked up)
Interferon gamma: QDPYVKEAENLKKYFNAGHSDVADNGTLFLGILKNWKEESDRKIMQSQIVSFYFKLFKNFKDDQSIQKSVETIKEDMNVKFFNSNKKKRDDFEKLTNYSVTDLNVQRKAIHELIQVMAELSPAAKTGKRKRSQMLFRG
oligodendrocytes; 10, 50 or 500 u/ml, DMEM alone, 3 days, MTT staining
  oligodendrocyte survival with interferon-γ: promoted oligodendrocyte survival in a dose-dependent manner

Reference: US20020058628A1, “Antioxidants and intracellular glutathione raising agents for therapeutic treatments” (priority 1998, published 2002)
